Patent US8193192B2, “Heterocyclic FXR binding compounds” (Phenex Pharmaceuticals AG, priority 2006, dated 2012)

Tests used:
[1] = Plasma protein binding assay, filtration method; type: in vitro ADME; conditions: lithium-heparin plasma, mouse plasma, 37° C., one hour, read-out: Plasma protein binding (%) (±standard deviation) (converted)
Procedure: Plasma Protein Binding Assay
Plasma protein binding was determined using the filtration method:
Preparation of standards: working solutions were prepared for each calibration level by appropriate dilution of the corresponding stock solution. Calibration standards were prepared by spiking 147 μl PBS buffer with 3 μl of the corresponding working solution. Sample preparation: The sample and standard solution preparation was performed by mixing equal volumes of acetonitrile containing the internal standard (1 μM) with 75 μl sample, or 150 μl calibration standard solution, respectively. After vigorously shaking the samples were centrifuged (6000 g) for 5 minutes. Aliquots of the supernatants were subjected to LC-MS/MS analysis. Assay procedure: Compound stock solutions were diluted in acetonitrile to give a 50-fold concentrated working solution. The incubation solutions were prepared by adding 3 μl of a 50-fold concentrated working solution in acetonitrile to 147 μl of lithium-heparin plasma from mice giving an incubation concentration of 1 μM. […] The percentage of compound bound to plasma proteins (% PPB) was calculated using the following equation: PPB[%]=100−(concentrationcompound plasma filtrate/mean concentrationcompound filtrated plasma filtrate)×100.
Applying this protocol, plasmaprotein binding of examples and reference compounds was determined as listed below in Table 5.

[2] = Determination of pharmacokinetic parameters in mice (oral cassette dosing); type: in vivo; conditions: C57BL/6 mice, po 5 mg/kg; for Vd: elimination phase; for CL: total body clearance; for Cmax / Tmax / AUC(0-inf) / concentration at 10 min / concentration at 30 min / concentration at 60 min / concentration at 120 min / concentration at 240 min / concentration at 480 min: male, mouse, plasma; for AUC(0-inf): extrapolated to infinity; for concentration at 10 min / concentration at 30 min / concentration at 60 min / concentration at 120 min / concentration at 240 min / concentration at 480 min: cassette, read-out: mean plasma conc.
Procedure: FIG. 1: Graphical depiction of pharmacokinetic data of compound A compared to example 3. Compound plasma concentrations (logarithmic scale) are plottet against sampling timepoints. Conditions: C57BL/6 mice, oral cassette dosing, 5 mg/Kg in 10% HPBCD/20 mM phosphate buffer.
Determination of Pharmacokinetic Parameters in Mice
Data on the rate and extent of absorption of the test compounds were generated. Compounds were applied perorally at 5 mg/kg each to male 8 weeks old C57BL/6 mice and plasma concentrations of the test items were determined by LC-MS/MS. A solution of […] of each test item was produced by diluting them in the vehicle, 10% HPBCD (hydroxypropyl-beta-cyclodextrin) in 20 mM phosphate buffer pH 7.0 (v/w). These solutions were stirred overnight at room temperature and heated to 60° C. for 10 minutes, resulting in a full solubilization. Then, an identical volume of each solution were mixed together to constitute the cassette. The application was performed by administrating the solution perorally to the mice, with an application volume of 10 ml/kg. […] Blood samples were obtained by sacrificing three animals for each time point (10, 30, 60, 120, 240, and 480 min) followed by cardiac puncture. Blood samples were treated with Li-heparin during collection procedure and stored on ice until centrifugation at 645 g (5 min, 4° C.). Plasma was harvested and kept at −20° C. until being assayed. To 50 μl of mouse plasma sample 6 μl acetonitrile containing an internal standard was added. Samples were vigorously shaken and centrifuged for 10 minutes at 6000 g and 20° C. An aliquot of the particle-free supernatant was transferred to 200 μl sampler vials and subsequently subjected to LC MS/MS for quantification.
Concentrations were plotted against sampling time for illustrating higher plasma levels of example 3 compared to plasma levels of compound A. The results are illustrated in FIG. 1.
PK calculation: The pharmacokinetic analysis of raw data was performed by applying a non-compartment model using the PK Solutions 2.0 software (Summit Research Services, Montrose, USA). All given parameters are model independent and were obtained by trapezoid area calculation and have the following meaning:
Cmax obs: maximal measured concentration;
tmax obs: time to reach the maximum measured concentration;
AUC0-∞: area under the concentration-time curve extrapolated to infinity;
Vd: volume of distribution during elimination phase;
CL: total body clearance.

[3] = Microsomal stability assay; type: in vitro ADME; conditions: pH 7.4; mouse liver microsomes, 37° C.
Procedure: Microsomal Stability Assay
In vitro assays were performed to evaluate the metabolic stability of test items in liver microsomes originating from mouse. Preparation of working standards of test items: Working solutions were prepared for each calibration level by appropriate dilution of the corresponding stock solution, depending on each compound's solubility in acetonitrile or acetonitrile/water. Calibration standards were prepared by spiking 196 μl standard matrix with 4 μl of the corresponding working solution. The standard matrix consists of 0.15 mg/ml of microsomal protein in phosphate buffer (100 mM pH 7.4), the final standard solutions contain 2% acetonitrile. The samples and standard solutions were extracted with ethyl acetate, isolation of the compounds was performed by addition of 600 μl ethyl acetate containing the internal standard (0.1 μM) to 200 μl sample and calibration standard. After vigorously shaking (10 minutes) and centrifugation (5000 g) the aqueous phase was separated by freezing in an acetone/dry ice bath and the organic phase is evaporated to dryness using a vacuum centrifuge. Samples were reconstituted in 200 μl acetonitrile/water mix (1:1 v/v) and subsequently subjected to LC-MS/MS. The incubation solution (180 μl) consisted of 90 μl of a microsomal suspension of 0.33 mg/ml of protein in phosphate buffer 100 mM pH 7.4 and 90 μl NADP-regenerating system. The reaction was initiated by the addition of 20 μl of test compound (in 20% acetonitrile) to the preincubated microsomes/buffer mix at 37° C. 200 μl samples were removed from the incubation after 0, 5, 10, and 30 minutes and processed for ethyl acetate extraction as described above. Negative controls using boiled microsomes (boiling water bath, 25 minutes) without regenerating system were run in parallel. The amount of compound in the samples is expressed as percentage of remaining compound compared to time point zero (=100%). These percentages were plotted against the corresponding time points. Intrinsic clearance (CLint) and half-life (t1/2) estimates were determined using the rate of parent disappearance and following formula (1) and (2). (1) CLint=(−k)×V×fu. (2) t1/2=ln 2/−k. Where CLint=intrinsic clearance [μl/min/mg protein], t1/2=half life [min], k=slope from the linear regression of log [test compound] versus time plot [1/min]. V=6666.7; fu=unbound fraction in the blood. Applying this protocol gave microsomal stabilities for examples and reference compounds as listed below in Table 6: […]

fraction unbound at 1 h, 1 µM [1]	Vd [2]	CL [2]	Cmax [2]	Tmax [2]	AUC(0-inf) [2]	concentration at 10 min [2]	concentration at 30 min [2]	concentration at 60 min [2]	concentration at 120 min [2]	concentration at 240 min [2]	concentration at 480 min [2]	half-life [3]	microsomal CLint [3]	SMILES
0.007	110.078 L/kg	343 mL/min/kg	120 ng/mL	10 min	242 ng·h/mL	120 ng/mL	102 ng/mL	43 ng/mL	24 ng/mL	15 ng/mL	8 ng/mL	22 min	207 µL/min/mg	CC(C)c1onc(-c2c(Cl)cccc2Cl)c1COc1ccc(Oc2ccc(C(=O)O)cc2)cc1 [Compound A, reference compound]
0.021	9.271 L/kg	59 mL/min/kg	904 ng/mL	10 min	1410 ng·h/mL	904 ng/mL	867 ng/mL	291 ng/mL	214 ng/mL	63 ng/mL	20 ng/mL	30 min	153 µL/min/mg	Cc1cc(OCc2c(-c3c(Cl)cccc3Cl)noc2C(C)C)cnc1Oc1ccc(C(=O)O)cc1 [Example 3, 4-(5-((3-(2,6-Dichlorophenyl)-5-isopropylisoxazol-4-yl)methoxy)-3-methylpyridin-2-yloxy)benzoic acid]
